Data: PubChem BioAssay AID588633 (Johns Hopkins Ion Channel Center, 2011)
Active and inactive are the calls of the source.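 Rule for the calls: active = TRPV1 channel activation above 50%; inactive = activation of 50% or less.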

Target: Transient receptor potential cation channel subfamily V member 1 (Homo sapiens) (UniProt Q8NER1)
Test: TRPV1 channel agonists by patch clamp, confirmation, automated patch clamp, HEK293 cells (AID 588633)
Settings: TRPV1-HEK293, automated patch clamp current; at 10 µM; hits give high values

Sequence of Transient receptor potential cation channel subfamily V member 1 (Homo sapiens) (Q8NER1 whole entry, looked up): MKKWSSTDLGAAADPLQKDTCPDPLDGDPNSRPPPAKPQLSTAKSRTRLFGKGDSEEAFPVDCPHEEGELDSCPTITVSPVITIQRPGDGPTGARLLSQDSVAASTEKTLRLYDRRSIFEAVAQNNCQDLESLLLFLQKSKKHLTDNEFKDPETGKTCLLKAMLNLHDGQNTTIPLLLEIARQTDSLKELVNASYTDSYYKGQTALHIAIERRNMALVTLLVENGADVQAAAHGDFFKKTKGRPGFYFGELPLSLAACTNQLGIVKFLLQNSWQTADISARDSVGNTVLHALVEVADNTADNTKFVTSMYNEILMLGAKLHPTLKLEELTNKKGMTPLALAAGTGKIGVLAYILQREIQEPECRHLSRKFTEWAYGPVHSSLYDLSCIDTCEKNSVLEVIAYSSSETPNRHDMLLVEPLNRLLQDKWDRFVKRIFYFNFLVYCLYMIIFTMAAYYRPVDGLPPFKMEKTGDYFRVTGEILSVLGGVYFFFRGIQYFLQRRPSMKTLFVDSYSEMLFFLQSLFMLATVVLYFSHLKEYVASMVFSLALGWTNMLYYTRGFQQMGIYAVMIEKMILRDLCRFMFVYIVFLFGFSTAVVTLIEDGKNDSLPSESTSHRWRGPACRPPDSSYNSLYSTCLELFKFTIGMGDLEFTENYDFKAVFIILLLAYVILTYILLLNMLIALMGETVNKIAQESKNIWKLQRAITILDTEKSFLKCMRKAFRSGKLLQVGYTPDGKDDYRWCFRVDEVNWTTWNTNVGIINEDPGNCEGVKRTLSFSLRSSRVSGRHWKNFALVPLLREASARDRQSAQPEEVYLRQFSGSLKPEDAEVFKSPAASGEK

| SMILES | activation |
| --- | --- |
| Cc1ncsc1CCC(=O)N1CCCC(Nc2ccc(C(C)C)cc2)C1 (centres undefined) | 335% |
| CCCOc1ccc(/C=C/C(=O)N2CCOCC2)cc1 | 338% |
| CC(C)c1ccc(NC2CCCN(C(=O)c3ccco3)C2)cc1 (centres undefined) | 387% |
| CC(=O)c1ccc(N2CCN(C(=O)Nc3ccc(Cl)cc3)CC2)cc1 | 6.07% (inactive) |
| O=C(COC(=O)C12CC3CC(CC(C3)C1)C2)Nc1ccc2[nH]c(=O)[nH]c2c1 | 34.9% (inactive) |
| O=C(Nc1ccc(N2CCCCCC2)cc1)c1cccc(S(=O)(=O)N2CCOCC2)c1 | 197% |
| CC(C)(C)c1ccc(NC(=O)c2ccsc2)cc1 | 199% |
| CCN(CCNC(=O)c1ccc(C#N)cc1)c1cccc(C)c1 | 427% |
| CCCCCCC1CCC(C(=O)N2CCOCC2)CC1 (centres undefined) | 17.2% (inactive) |
| CC(C)c1ccc(/C=C/C(=O)N2CCOCC2)cc1 | 242% |
| CCCCCCCCC(=O)NCc1ccc(O)c(OC)c1 | 43.2% (inactive) |
| CC1CCCN(c2ccc(C(=O)Nc3cccnc3)cc2[N+](=O)[O-])C1 (centres undefined) | 467% |
| CC(C)CCSc1nc(N2CCOCC2)c2c(c1C#N)CC(C)(C)OC2 | 93.7% |
| CC(C)(C)c1ccc(/C=C/C(=O)N2CCCCC2)cc1 | 420% |
| CC(=O)c1ccc(NC(=O)N2CCN(c3ccc(C)cc3)C(C)C2)cc1 (centres undefined) | 155% |
| CC(OC(=O)CC1CCCCC1)C(=O)Nc1ccc(F)cc1 (centres undefined) | 77.3% |
| NS(=O)(=O)c1ccc(NC(=O)c2ccc3c(c2)CCCC3)cc1 | 23.2% (inactive) |
| Cc1cc(C(=O)NCCC2=CCCCC2)ccc1[N+](=O)[O-] | 369% |
| O=C(/C=C\c1cn(-c2ccccc2)nc1-c1cccs1)N1CCOCC1 | 272% |

| SMILES | activation |
| --- | --- |
| CC(C)(C)OC(=O)CNC(=O)c1[nH]cnc1C(=O)N[C@@H](Cc1ccccc1)C(=O)OC(C)(C)C | 28.7% (inactive) |
| O=C(Nc1cccc([N+](=O)[O-])c1)c1ccc(-c2ccccc2)cc1 | 5.26% (inactive) |
| O=C(/C=C\c1cn(-c2ccccc2)nc1-c1ccc2c(c1)OCCO2)N1CCOCC1 | 226% |
| CC(C)(C)c1ccc(/C=C/C(=O)Nc2cccnc2)cc1 | 131% |
| COCCNC(=O)CCc1c(C)nc2c(c(C)nn2-c2ccc(C)cc2)c1C | 197% |
| Cc1ccc(Cn2nc(C(=O)Nc3ccc(Br)cc3)cc2C)cc1 | 26.9% (inactive) |
| CC(C)(C)c1ccc(OCCCC(=O)N2CCOCC2)cc1 | 304% |
| CCN(CC)S(=O)(=O)c1ccc(/C=C/C(=O)Nc2ccc(N3CCOCC3)cc2)cc1 | 27.1% (inactive) |
| CCN(c1ccc(NC(=O)c2ccc(Cl)nc2)cc1)C(C)C | 291% |
| Cc1ccc(NC(=O)c2cc3c(s2)CCCC3)cc1 | 402% |
| CCCn1c(SC(C)C(=O)N2CCOCC2)nc2ccc(Br)cc2c1=O (centres undefined) | 253% |
| COC(=O)c1[nH]c2ccc(C)cc2c1NC(=O)CN1CCCC(C)(C)C1 | 61.2% |
| CC(C)(C)c1cc(CCC(=O)NCc2ccncc2)cc(C(C)(C)C)c1O | 265% |
| CC(C)(C)c1ccc(/C=C/C(=O)Nc2ccncc2)cc1 | 69.2% |
| O=C(CCc1ccccc1)N1CCCC(Nc2ccc(F)cc2)C1 (centres undefined) | 585% |
| CC(C)(C)c1ccc(C(=O)Nc2ccc(S(N)(=O)=O)cc2)cc1 | 378% |
| O=C(c1cc(-c2ccc(Cl)cc2Cl)on1)N1CCOCC1 | 334% |
| Cc1ccc(N2CCN(C(=O)N3CCOCC3)CC2)c(C)c1 | 33.5% (inactive) |
| O=C(C1=NOC(CNc2ncc(C(F)(F)F)cc2Cl)C1)N1CCOCC1 (centres undefined) | 157% |

| SMILES | activation |
| --- | --- |
| CC(C)(C)c1ccc(/C=N/OCC(=O)NCc2ccc(F)cc2)cc1 | 9.95% (inactive) |
| O=C(NCCCc1ccccc1)c1ccc(F)cc1 | -2.6% (inactive) |
| CC(C)(C)c1ccc2c(c1)OC(C(=O)N/N=C\c1ccncc1)CO2 (centres undefined) | 182% |
| CCCCCC1CCC(C(=O)N2CCOCC2)CC1 (centres undefined) | 57% |
| CC(=O)c1ccc(N2CCN(C(=O)Nc3ccc(C(C)C)cc3)CC2)cc1 | 316% |
| Cc1ccc(C(=O)Nc2ccc(SC(F)F)cc2)s1 | 54.6% |
| CC(C)(C)c1ccc(NC(=O)N2CCCN(c3ccc([N+](=O)[O-])cn3)CC2)cc1 | 287% |
| CCOC(=O)[C@H]1[C@H]2COc3ccc(Cl)cc3[C@@H]2N2C(=O)c3ccc(C)cc3NC(=O)[C@@]12C | 34% (inactive) |
| CCc1ccc(NC(=O)Nc2ccc3c(c2)N(C)C(=O)CS3)cc1 | 28.7% (inactive) |
| O=C(C1=C[C@@H](c2ccccc2)C[C@@H](OCc2ccc(CO)cc2)O1)N1CCCCCCC1 | 323% |
| CS(=O)(=O)N1CCc2cc(C(=O)Nc3ccc(Br)cc3)ccc21 | 5.79% (inactive) |
| CCc1ccc(/C=C2\SC(N3CCOCC3)=NC2=O)cc1 | 199% |
| O=C(NCc1cccnc1)C1CCC(c2ccc(Cl)cc2)CC1 (centres undefined) | 196% |
| CC1CCN(C(=O)/C=C/c2ccc(C(C)(C)C)cc2)CC1 | 12.5% (inactive) |
| Cc1cnc(NC(=O)c2cc3c(s2)CCCC3)s1 | 32.4% (inactive) |
| CCCSc1ccc(-c2nn(-c3ccccc3)cc2/C=C(/C#N)C(=O)N2CCOCC2)cc1 | 23.7% (inactive) |
| O=C(NCc1ccccc1)[C@@H]1C[C@H]1[C@@H](NP(=O)(c1ccccc1)c1ccccc1)c1ccccc1 | 97.1% |
| Cc1ccc(/C=N/Nc2nc(N3CCCCC3)nc(N3CCCCC3)n2)o1 | 148% |

The remaining lines, values ahead:

| activation | SMILES |
| --- | --- |
| 50.9% | Cc1ccc(S(=O)(=O)Cc2ccc(C(=O)NCCc3ccccc3)o2)cc1 |
| 419% | COc1ccc(Nc2nc(C)nc3c2oc2ccccc23)cc1 |
| 1.55% (inactive) | Cc1ccc2nc(-c3ccccn3)cc(C(=O)Nc3ccc4c(c3)OCO4)c2c1 |
| 406% | COc1ccc(NC(=O)CCCSc2nc(-c3ccco3)cc(C(F)(F)F)n2)cc1OC |
| 63.1% | CCC(C)Sc1cccc(-c2nc3cc(C)ccn3c2NCc2ccccc2)c1 (centres undefined) |
| 48.6% (inactive) | COc1ccc(Nc2ncnc3c2oc2ccccc23)cc1 |
| 10.6% (inactive) | Oc1ccccc1N=Cc1c(O)ccc2ccccc12 |
| 76.2% | Cc1cc(C(=O)N/N=C/c2cccc([N+](=O)[O-])c2)c(C)n1-c1ccccc1 |
| 34.8% (inactive) | Cc1nc(Nc2cccc(Cl)c2)c2oc3ccccc3c2n1 |
| 156% | CC(C)c1ccc(CNNC(=O)c2ccccc2)cc1 |
| 143% | COc1ccc(Cn2nc(-c3ccccc3)c(N3CCCCC3)cc2=O)cc1 |
| 272% | COc1ccc(CNC(=S)NCc2ccc(Cl)cc2)cc1OC |
| 58.3% | Cc1nc(Nc2cccc(F)c2)c2oc3ccccc3c2n1 |
| 229% | Cc1cccn2c(=O)c3cc(C(=O)NCC4CCCO4)c(=N)n(Cc4ccc(F)cc4)c3nc12 (centres undefined) |
| 105% | Cc1ccc(C2=NN(C)c3nc4ccccc4n3C2)cc1 |
| 440% | CCC(C)(C)c1ccc(OCC(=O)Nc2ccncc2)cc1 |
| 3.59% (inactive) | CC(C)(C)c1ccc(C(=O)Nc2ccc3c(c2)C(=O)NC3=O)cc1 |
| 30% (inactive) | CC(=O)Nc1ccc(N=Cc2c(O)ccc3ccccc23)cc1 |
| 173% | COc1cccc(/C=N/n2c(SC)nnc2-c2ccccc2)c1O |

| activation | SMILES |
| --- | --- |
| 135% | CC(C)c1ccc(NC(=O)N2CCC(c3nc4ccccc4o3)CC2)cc1 |
| 69.7% | CC(=O)c1ccc(Nc2ncnc3c2oc2ccccc23)cc1 |
| 317% | Cc1ccc(Nc2nc(C)nc3c2oc2ccccc23)cc1 |
| 6.35% (inactive) | Cc1cc2oc(C(=O)Nc3cccnc3)c(C)c2cc1C |
| 57.6% | CC(C)c1ccc(NCCC(=O)c2cccs2)cc1 |
| 111% | CCc1nc(Nc2ccc3c(c2)OCCO3)c2oc3ccccc3c2n1 |
| 200% | Cc1cc2c(NC(=O)Nc3ccc(C(C)(C)C)cc3)cccc2nn1 |
| 145% | O=C(Nc1ccc(C(F)(F)F)cc1)c1ccc2ncsc2c1 |
| 43.2% (inactive) | CCOC(=O)c1sc(-c2ccccc2)cc1NC(=O)Nc1ccccc1 |
| 39.6% (inactive) | CC(C)(C)c1ccc(OCCNC(=O)Cc2ccc(F)cc2)cc1 |
| 200% | Cc1ccc(Nc2ncnc3c2oc2ccccc23)cc1 |
| 128% | CCc1nc(Nc2ccccc2)c2oc3ccccc3c2n1 |
| 330% | COc1ccc(NC2c3ccccc3C(=O)N2Cc2ccc3c(c2)OCO3)cc1 (centres undefined) |
| 10.9% (inactive) | CCC(C)Sc1cccc(-c2nc3ccc(Cl)cn3c2NCc2ccccc2)c1 (centres undefined) |
| 40.5% (inactive) | O=C(Nc1ccccc1)c1cc(-c2ccccc2Cl)no1 |
| 4.84% (inactive) | CCc1ccc2oc(C(=O)Nc3cccnc3)c(C)c2c1 |
| 67% | O=C(Nc1cccnc1)c1ccc(-c2ccccc2)cc1 |
| 27.4% (inactive) | CCC(C)Sc1ccc(-c2nc3ccc(C)cn3c2NCc2ccccc2)cc1OC (centres undefined) |
| 51.6% | COc1ccc(C(=O)Nc2ccc(C3=NNC(=O)CC3C)cc2NC(=O)c2ccc(OC)cc2)cc1 (centres undefined) |
